Reference: patent US11433143B2, “Nano-enabled immunotherapy in cancer” (The Regents of the University of California, priority 2017, dated 2022)

How the values were obtained:
[1] = test system: mTOR signaling; assay: Western blot of mTOR signaling (P-S6K phosphorylation) in 4T1 cells in tryptophan-deficient DMEM; assay type: cell-based, mouse; conditions: 3 h, vs free IND
[2] = test system: 4T1 cells; assay: ICD screening of chemo agents in 4T1 cells (CRT expression, HMGB1 release); assay type: cell-based, mouse; conditions: multi-parameter cellular screening
Text: One possible approach is to use chemotherapy to induce immunogenic cell death or ICD.

[3] = test system: KPC tumor; assay: Vaccination with drug-treated dying KPC cells, live KPC challenge on contralateral side; assay type: in vivo, mouse; conditions: for KPC tumor growth in the contralateral flank (spaghetti curves) / KPC tumor size on the contralateral side: 2 rounds of vaccination one week apart; for KPC tumor size on the contralateral side: tumors collected on day 26
Procedure: FIG. 6. […] DACHPt, 500 μM) for 24 h. HMBG1 release was measured using ELISA. Panel B) Animal experimentation using 2 rounds of vaccination one week apart, followed by injecting live KPC cells SC on the contralateral side. The details of the animal vaccination experiment are provided in the methods section. Tumors were collected on day 26 for size measurement and IHC analysis. Panel C) Tumor size measurement on the contralateral side. Panel D) Explanted tumor at the contralateral side. Panel E) Spaghetti curves to show KPC tumor growth in the contralateral flank. Panel F) Tumor collection was performed after euthanizing the animal to conduct IHC.
Animal experiments were performed using two rounds of vaccination one week apart, followed by injecting live KPC cells SC on the contralateral side (FIG. 6, panel B). Tumors were collected on day 26 for size measurement and IHC analysis.
Tumor collection was performed after euthanizing the animals to conduct IHC. IHC staining of CD8 and Foxp3 T cells was used to calculate CD8/FoxP3 T cell ratio in each group (see, e.g., FIG. 6, panel F).

[4] = test system: KPC pancreatic cancer cells; assay: Induction of ICD marker CRT (flow cytometry) and HMGB1 release (ELISA) in cultured KPC pancreatic cancer cells; assay type: cell-based, mouse; conditions: 24 h; for induction of the ICD marker CRT: DOX 20 μM, OX 500 μM, activated DOX (DACHPt) 500 μM, flow cytometry; for HMGB1 release: ELISA
Procedure: FIG. 6. Panel A) Flow cytometry experiment showing the induction of the ICD marker, CRT, in cultured KPC pancreatic cancer cells in the presence of PBS, DOX (20 μM), OX (500 μM), and activated […] (a.k.a. DACHPt, 500 μM) for 24 h. HMBG1 release was measured using ELISA. Panel B) Animal experimentation using 2 rounds of vaccination one week apart, followed by injecting live KPC cells SC on the contralateral side. The details of the animal vaccination experiment are provided in the methods section. Tumors were collected on day 26 for size measurement and IHC analysis. Panel C) Tumor size measurement on the contralateral side. Panel D) Explanted tumor at the contralateral side. Panel E) Spaghetti curves to show KPC tumor growth in the contralateral flank. Panel F) Tumor collection was performed after euthanizing the animal to conduct IHC. IHC staining of CD8 and Foxp3 T cells was used to calculate CD8/FoxP3 T cells ratio in each group. *p<0.05; **p<0.01
ICD is a modified form of apoptosis that can be used to initiate an effective immune response against endogenous tumor antigens (Kroemer et al. (2013) Ann. Rev. Immunol., 31: 51-72).^1 Since this model was 1st proposed against the backdrop of a select number of cancer drugs (Id.), we focused on the use of OX, because it is FDA-approved for PDAC treatment. As a component of the FOLFIRINOX regimen (in combination with irinotecan, 5-FU and folinic acid). For comparison, we also included the anthracycline antibiotic, DOX, as a positive control and cisplatin (Cis) as a negative control for the screening of PDAC cell lines, using cell surface CRT expression (Obeid et al. (2017) Nat. Med., 13(1): 54-61; Casares et al. (2005) J. Exp. Med. 202(12): 1691-1701; Fucikova et al. (2011) Canc. Res. 71(14): 4821-4833; Tesniere et al. (2010) Oncogene, 29(4): 482-491; Galluzzi et al. (2012) Oncogene, 31(15): 1869-1883; Martins et al. (2011) Oncogene, 30(10): 1147-1158). CRT is an endoplasmic reticulum (ER) stress protein that translocates to the surface membrane of cancer cells undergoing ICD (Obeid et al. (2017) Nat. Med., 13(1): 54-61; Fucikova et al. (2011) Canc. Res. 71(14): 4821-4833). Screening for CRT expression was performed in murine KPC cells, derived from a spontaneous tumor that developed in a transgenic Kras^LSL-G12D/+/Trp53^LSL-R172H/+/Pdx-1-Cre (KPC) mouse (Hingorani et al. (2005) Cancer cell, 7(5): 469-483).
The KPC model recapitulates many of disease features of human PDAC, including oncogene expression, development of a robust cancer stroma, extensive local invasion and distant metastases (Tones et al. (2013) PloS one, 8(11): e80580; Tseng et al. (2010) Clin. Canc. Res. 16(14): 3684-3695). DOX and OX and activated DOX induced the ICD marker CRT in cultured KPC pancreatic cancer cells (FIG. 6, panel A). […]

[5] = Solubility and log P; assay type: physicochemical
[6] = PK characteristics of free IND; conditions: in vivo
[7] = test system: 4T1 cells; assay: CRT induction by liposomes in 4T1 cells (flow cytometry)
Text: Panel B) All the particles were fully characterized abiotically and biotically.

[8] = Determination of MTD doses in normal mice; conditions: mouse, in vivo, single IV administration
Procedure: FIG. 26. Panel A) Determination of MTD doses for free MTX and liposomal MTX in normal mice. MTD doses for free MTX and liposomal MTX were 3 and 15 mg/kg for single IV administration. Due to the high MTD of liposomal MTX, we tested the efficacy of the MTX liposome at low dose (1 mg/Kg×3 times) and high dose (3 mg/Kg×3 times). Panel B) Pilot tumor size measurement in 4T1 orthotopic tumor-bearing mice (n=6) receiving IV free drug or MTX-only liposome. For free drug treatment, we have included 2 two schedules namely single IV at 3 mg/kg at Day 8 or IV injections at 1 mg/kg at Day 8, 11 and 14. Since MTX liposome has a 5× higher MTD dose, the tumor mice received single IV at 3 mg/kg at Day 8 or IV injections at Day 8, 11 and 14.

[9] = cited from earlier work

In the case of 16:0 LysoPC-indoximod [IND-PL], the “effect on mTOR signaling (phosphorylation of P-S6K)” value [1] is reported as “enhanced effect”.
For `O=c1[nH]cc(F)c(=O)[nH]1` [5-FU, 5-fluorouracil], the “ICD induction (calreticulin expression, release of HMGB1)” value (from here on “ICD induction”) [2] was “failed to induce the same effect”.
In the case of `COc1cccc2c1C(=O)c1c(O)c3c(c(O)c1C2=O)C[C@@](O)(C(=O)CO)C[C@@H]3O[C@H]1C[C@H](N)[C@H](O)[C@H](C)O1` [DOX, doxorubicin], the “KPC tumor growth in the contralateral flank (spaghetti curves)” value [3] is reported as “decrease”, the “KPC tumor size on the contralateral side” value [3] is reported as “significant reduction” and the “ICD induction” value [2] is reported as “can induce”. The “induction of the ICD marker CRT” value [4] was “induced” and the HMGB1 release [4] was “increased”.
For `Cn1cc(C[C@@H](N)C(=O)O)c2ccccc21` [Free IND, 1-methyl-D-tryptophan], the “water solubility” value [5] was “relatively water insoluble” and the PK characteristics [6] was “unfavorable PK characteristics”.
For `O=C1c2c(O)ccc(O)c2C(=O)c2c(NCCNCCO)ccc(NCCNCCO)c21` [MTX, mitoxantrone], the “CRT induction / ICD response in 4T1 cells (FIG. 31 panel B)” value [7] was “generation of an ICD response”, the “ICD induction” value [2] was “can induce” and the MTD [8] was 3 mg/kg.
For `O=C1[O][Pt]2([NH][C@@H]3CCCC[C@H]3[NH]2)[O]C1=O` [OX, oxaliplatin], the “KPC tumor growth in the contralateral flank (spaghetti curves)” value [3] was “decrease”, the “KPC tumor size on the contralateral side” value [3] was “significant reduction” and the “CD8+/Foxp3+ ratio” value ([3]; local and systemic tumor sites) was “capable of increasing”. The “induction of the ICD marker CRT” value [4] was “induced” and the HMGB1 release [4] was “increased”.
With `N.N.[Cl][Pt][Cl]` [cisplatin] the “ICD induction” value [2] was “failed to induce the same effect”.
In the case of `NS(=O)(=O)NCCNc1nonc1C(=NO)Nc1ccc(F)c(Br)c1` [epacadostat], the solubility in ethanol [9] is listed as > 20 mg/mL.
In the case of `CC(=O)O[C@H]1C(=O)[C@@]2(C)[C@H]([C@H](OC(=O)c3ccccc3)[C@]3(O)C[C@H](OC(=O)[C@H](O)[C@@H](NC(=O)c4ccccc4)c4ccccc4)C(C)=C1C3(C)C)[C@]1(OC(C)=O)CO[C@@H]1C[C@@H]2O` [paclitaxel], the “ICD induction” value [2] is reported as “ICD inducer”.
